From patent publication US11384381B2, “Reaction accelerating agent” (Kikkoman Corporation, priority 2016, dated 2022)

Tests used:
[1] = system: CFP-DH4 (A1cOX); experiment: Acceleration of HbA1c detection reaction with small amount of A1cOX (Example 5); format: biochemical; details: HbA1c detection reaction, ΔA/ΔA100%, 0.04% (w/v) compound, 1.1 mg/ml CFP-DH4
Protocol: Next, in this Example, the degree of acceleration of HbA1c detection reaction by the compound of the present invention was determined using a small amount of A1cOX.
A reagent for HbA1c measurement having the following composition was prepared, and the measurement of HbA1c was carried out using Bio Majesty JCA-BM1650 (manufactured by JEOL Ltd.).
(§1) Blood cells (10.4% HbA1c (NGSP value))
(§2) 30 mM MOPS-NaOH buffer solution, pH 6.5
0.2% (w/v) n-dodecyl-3-D-maltoside (manufactured by Dojindo Laboratories)
(§3) 10 U/ml peroxidase PEO-301 (Toyobo Co., Ltd.)
(§4) 0.023 mM 10-(carboxymethylaminocarbonyl)-3,7-bis(dimethylamino)phenothiazine sodium (DA-67, manufactured by Wako Pure Chemical Industries, Ltd.)
0.04% (w/v) of the compound of Comparative Example 2, any one compound of the present invention, or compound-free (Comparative Example 1) ion-exchange water as shown in Table 2
10 mM MOPS-NaOH buffer solution, pH 6.5
1.1 mg/ml CFP-DH4 (A cOX)
8 μl of the sample diluted 51-fold with ion-exchange water was added to 96 μl of the first reagent, and the mixture was incubated at 37° C. for 5 minutes. Then, 24 μl of the second reagent-B was added thereto, and the quantitative reaction of hydrogen peroxide resulting from the oxidation of the β-chain amino terminus of HbA1c was allowed to progress at 37° C. for 5 minutes. The absorbance ([…] and A751) of the reaction solution for light at wavelengths of 694 nm and 751 nm was measured over time for 10 minutes after the mixing of the diluted sample with the first reagent to determine the value of subtraction of A751 from A694, i.e., the value A694/751. Subsequently, ΔA was calculated by subtracting, from A694/751, the value of (104/128) times A694/751 4.8 minutes after the mixing of the diluted sample with the first reagent. Incidentally, […] after the mixing of the diluted sample with the first reagent represents the time immediately before the addition of the second reagent-B.
Next, ΔA calculated in this Example was divided by ΔA100% defined in Example 4 to calculate the degree of progression of HbA1c detection reaction. The degree of progression of HbA1c detection reaction 7.5 and 10 minutes after the mixing of the diluted sample with the first reagent (in other words, 2.5 and 5 minutes after the addition of the second reagent-B) is shown in Table 2.

[2] = system: CFP-DH4 (A1cOX); experiment: HbA1c detection reaction completed with excess A1cOX (Example 4); format: biochemical; details: 0.04% (w/v) compound, 5.3 mg/ml CFP-DH4 (excess), blood cells 10.4% HbA1c, pH 6.5, 37° C.
Protocol: In this Example, the amount of change in absorbance when an excess amount of A1cOX is used and HbA1c detection reaction was completed is determined.
A reagent for HbA1c measurement having the following composition was prepared, and the measurement of HbA1c was carried out using Bio Majesty JCA-BMI650 (manufactured by JEOL Ltd.).
as §1, §2
0.2% (w/v) n-dodecyl-β-D-maltoside (manufactured by Dojindo Laboratories)
as §3, §4
0.04% (w/v) of the compound of Comparative Example 2 (Wako Pure Chemical Industries, Ltd.), any one compound of the present invention (all from Tokyo Chemical Industry Co., Ltd. except for Acid Yellow 34 from MP Biomedicals, LLC), or compound-free (Comparative Example 1) ion-exchange water as shown in Table 1 (Second Reagent-A) 10 mM MOPS-NaOH buffer solution, pH 6.5 5.3 mg/ml CFP-DH4 (A cOX)
8 μl of the sample diluted 51-fold with ion-exchange water was added to 96 μl of the first reagent-A, and the mixture was incubated at 37° C. for 5 minutes. Then, 24 μl of the second reagent-A was added thereto, and the quantitative reaction of hydrogen peroxide resulting from the oxidation of the β-chain amino terminus of HbA1c was allowed to progress at 37° C. for 5 minutes. The absorbance (A694 and A751) of the reaction solution for light at wavelengths of 694 nm and 751 nm was measured over time for 10 minutes after the mixing of the diluted sample with the first reagent-A to determine the value subtracting of A751 from A694, i.e., the value A694/751. Subsequently, ΔA was calculated by subtracting, from A694/751, the value of (104/128) times A694/751 4.8 minutes after mixing the diluted sample with the first reagent-A. Incidentally, 4.8 minutes after the mixing of the diluted sample with the first reagent-A represents the time immediately before the addition of the second reagent-A. ΔA 9 minutes and 10 minutes after the mixing of the diluted sample with the first reagent (ΔA9min and ΔA10min) are shown in Table 1.
In other words, it can be recognized that the quantitative reaction of HbA1c, i.e., the quantitative reaction of hydrogen peroxide resulting from the oxidation of HbA1c, was completed in 10 minutes after the mixing of the diluted sample with the first reagent-A. Accordingly, in Examples 4 and 5, ΔA10min in each Comparative Example or the present invention was defined as ΔA when 100% of the quantitative reaction of HbA1c progressed under each condition (ΔA100%).

Compound: O=C([O-])C1=NN(c2ccc(S(=O)(=O)[O-])cc2)C(=O)C1N=Nc1ccc(S(=O)(=O)[O-])cc1.[Na+].[Na+].[Na+] (stereo not shown) [Tartrazine, reference compound]
- Degree of progression of reaction (%) after 7.5 minutes ([1]; 2.5 minutes after addition of second reagent, not added: 51): 38%
- Degree of progression of reaction (%) after 10 minutes ([1]; 5 minutes after addition of second reagent, not added: 73): 62%
- ΔA9 min ([2]; change in A694-A751 9 minutes after mixing sample with first reagent): 0.032
- ΔA10 min ([2]; change in A694-A751 10 minutes after mixing sample with first reagent, defined as ΔA100%): 0.032
